In brackets after ≈: the same amount, converted by molar mass.
Experiments:
[1] = MTD in mice; conditions: mouse, in vivo, ip, C57B1/6 female mice, 14 days
Source text: B and Prep. A, respectively}, and are observed for 14 days.
The MTD is defined as a dose which leads to no daunorubicin-deaths (any higher dose leads to the daunorubicin-related death of at least 1 animal per group). The experiment is repeated twice. The results are reproducible with less that 10% variation.

[2] = test system: MCF-7AU; assay: Cytotoxicity against daunorubicin/verapamil-resistant MCF-7AU not expressing P-170; format: cell-based, human
Source text: The daunorubicin composition of Example 3 {Prep. […] B}.

[3] = test system: human T-lymphoma (Jurkat) cells; assay: Cytotoxicity in human T-lymphoma (Jurkat) cells, Example 4; format: cell-based
Protocol: (§1) B. Human ovarian carcinoma cells (CRL157) are precultured in 1% solution of the same block copolymer but without daunorubicin in RPMI 1640 medium supplemented with 10% calf fetal serum. The preparation of part A is added and the mixture is incubated for 60 minutes at 37° C. and the cells then washed three times with RPMI 1640 and cultured in RPMI 1640 supplemented with 10% calf fetal serum for 3 days {Prep. A}. Cytotoxicity is measured, both for this preparation and a parallel preparation of free daunorubicin {Prep. B}, using the method of Alley et al., Cancer Res., 48, 589-601 (1988). The results are as follows:
A. A 1:1.5 mixture of block copolymers of poly(oxyethylene)-poly(oxypropylene) (pluronics P-85 and L-64) having individual ratios (n) of (oxypropylene) to (oxyethylene) blocks of 1.00 and 1.50, respectively, and a combined value (N) of 1.30, is diluted with RPMI 1640 medium to a final concentration of 2.0% at 4° C. The mixture is incubated for 30 minutes at 37° C. and then sterilely filtered through a 0.22 μm filter. An equal volume of a solution of 200 μg daunorubicin in RPMI 1640 medium is added and this mixture is incubated for 30 minutes at 37° C.
Daunorubicin in the composition of Example 3 is evaluated for cytotoxicity in (i) human T-lymphoma (Jurkat) cells as described in Example 1 and (ii) normal human mononuclear cells.

[4] = test system: SKVO3 cells; assay: Cytotoxic activity of plasma of inoculated mice on SKVO3 cells; format: cell-based, human
Protocol: Anti-neoplastic activity is determined by evaluation of the cytotoxic activity of plasma of mammals inoculated with the test composition (see de Valeriola et el., Cancer Chemother. Pharmacol. 29, 133-140, 1991).
Groups (6 animals/group) of C57B1/6 7-week-old female mice are inoculated i.v. (via the tail vein) with free or micellar (N=1.3) daunorubicin obtained as described in Example 3 {Prep. B and Prep. A, respectively}. Drug concentrations (MTD) are adjusted so that a maximum volume of 0.1 mL is injected in each mouse. The experiment is repeated twice.
To obtain plasma samples, blood (10 μl) is collected from the tail artery one hour after drug administration, diluted 1:10 with sterile RPMI 1640 medium, and centrifuged at 400 g for 15 minutes. […] The cells are incubated for two hours at 37° C. and 5% CO2, and then washed three times with RPMI 1640. The pretreated cells are incubated in RPMI 1640 supplemented with 10% fetal calf serum at 37° C. and 5% CO2 for three days, after which cytotoxicity is determined as described in Example 1.
The procedure of Example 16 is repeated utilizing SKVLB and SRVO3 cells.

[5] = test system: CRL157 cells; assay: Cytotoxicity to CRL157 cells after incubation of preparations in the dark at 37° C.; format: cell-based; conditions: Homo sapiens
Protocol: as §1
Micellar daunorubicin obtained as described in Example 3 {Prep. A} and free daunorubicin {Prep. B} are incubated in the dark at 37° C. and cytotoxicity to CRL157 cells in then determined in the manner discussed in Part B of Example 1.

[6] = test system: human small cell carcinoma of lung (H-69); assay: Cytotoxicity to human small cell carcinoma of lung (H-69), Example 1; format: cell-based
Protocol: A. A block copolymer of poly(oxyethylene)-poly(oxypropylene) in which N=0.25 (Pluronic F-68) is diluted with RPMI 1640 medium to a final concentration of 2.0% at 4° C. The mixture is incubated for 30 minutes at 37° C. and then sterilely filtered through a 0.22 μm filter. An equal volume of a solution of 200 μg daunorubicin in RPMI 1640 medium is added and this mixture is incubated for 30 minutes at 37° C.
as §1
Following the same procedure, cytotoxicity is determined against human small cell carcinoma of lung (H-69): […]

[7] = test system: leukocytes; assay: Leukocyte count (WBS) in mice
Protocol: Therefore, the leukocyte count during in vivo administration of MTD daunorubicin allows the assessment of the ratio between specific (DNA-intercollation) activity of the drug and non-specific toxicity.
Groups (6 animals/group) of C57B1/6 7-week-old female mice are inoculated i.p. with free of micellar (N=1.3) daunorubicin obtained as described in Example 3 {Prep. B and Prep. A, respectively}. Drug concentrations (MTD) are adjusted so that a maximum volume of 0.5 mL is injected in each mouse. Blood samples are collected and viable leukocytes are counted as described in Michisch et al., Proc. Natl. Acad. Sci. USA 88, 547-551 (1991). The number of WBC after administration of 0.1 mL PBS, 15-16 mln cells/mL, is used as the control. The experiment is repeated twice.
The effects of free and micellar daunorubicin obtained as described in Example 3 {Prep. B and Prep. A, respectively} on leukocyte count are determined three days after administration as described in Example 15.

COc1cccc2c1C(=O)c1c(O)c3c(c(O)c1C2=O)C[C@@](O)(C(C)=O)C[C@@H]3O[C@H]1C[C@H](N)[C@H](O)[C@H](C)O1 [Prep. B, daunorubicin]
MTD at 336 h [1]: 2 mg/kg | inhibition at 0.016 µg/mL ([2]; Homo sapiens): 3% | inhibition at 0.08 µg/mL ([2]; Homo sapiens): 9% | inhibition at 0.4 µg/mL ([2]; Homo sapiens): 37% | inhibition at 2 µg/mL ([2]; Homo sapiens): 65% | inhibition at 10 µg/mL ([2]; Homo sapiens): 89% | inhibition at 50 µg/mL ([2]; Homo sapiens): 100% | IC50 (in words) ([2]; resistant line MCF-7AU, statement for both resistant lines): higher IC50 's (is less toxic) | inhibition at 0.0032 µg/mL [3]: 21% | inhibition at 0.016 µg/mL [3]: 36% | inhibition at 0.08 µg/mL [3]: 59% | inhibition at 0.4 µg/mL [3]: 83% | inhibition at 2 µg/mL [3]: 100% | inhibition at 10 µg/mL [3]: 100% | inhibition at 50 µg/mL [3]: 100% | Inhibition, % ([4]; plasma dilution 1:20, 10 mg/kg daunorubicin): 22% | Inhibition, % ([4]; plasma dilution 1:20, MTD of daunorubicin): 9% | Inhibition, % ([4]; plasma dilution 1:200, 10 mg/kg daunorubicin): 6% | Inhibition, % ([4]; plasma dilution 1:200, MTD of daunorubicin): 0% | Inhibition, % ([4]; plasma dilution 1:2000, 10 mg/kg daunorubicin): 0% | Inhibition, % ([4]; plasma dilution 1:2000, MTD of daunorubicin): 0% | IC50 ([5]; 2 h): 0.4 µg/mL (≈ 0.758 µM) | IC50 ([5]; 4 h): 0.475 µg/mL (≈ 0.9 µM) | IC50 ([5]; 12 h): 1.12 µg/mL (≈ 2.12 µM) | IC50 ([5]; 24 h): 6.3 µg/mL (≈ 11.9 µM) | IC50 ([5]; 48 h): 10.2 µg/mL (≈ 19.3 µM) | IC50 ([5]; 96 h): 48.9 µg/mL (≈ 92.7 µM) | inhibition at 0.0032 µg/mL [6]: 20% | inhibition at 0.016 µg/mL [6]: 42% | inhibition at 0.08 µg/mL [6]: 69% | inhibition at 0.4 µg/mL [6]: 91% | inhibition at 2 µg/mL [6]: 100% | inhibition at 10 µg/mL [6]: 100% | inhibition at 50 µg/mL [6]: 100% | WBS, % of control ([7]; day 0, MTD i.p.): 100 % of control | WBS, % of control ([7]; day 3, MTD i.p.): 40 % of control | WBS, % of control ([7]; day 7, MTD i.p.): 60 % of control | WBS, % of control ([7]; day 10, MTD i.p.): 93.8 % of control | WBS, % of control ([7]; day 14, MTD i.p.): 100 % of control | WBS, % of control ([7]; dose 25% of MTD, three days after administration): 78 % of control | WBS, % of control ([7]; dose 50% of MTD, three days after administration): 61 % of control | WBS, % of control ([7]; dose 75% of MTD, three days after administration): 36 % of control | WBS, % of control ([7]; dose 100% of MTD, three days after administration): 39 % of control

Reference: patent US5698529A, “Chemotherapeutic compositions” (Supratek Pharma, Inc., priority 1996, dated 1997)
